# Data reported in US20220040133A1.
# Key:
# [1] = mouse, in vivo
# [2] = system: relapsed or refractory T-cell lymphoma; conditions: IV, days 1-4, 8, 11, 15, 18 of a 4 week cycle, 2000 mg/m^2 to 2750 mg/m^2, combined with bendamustine 90 mg/m^2; cited from earlier work
# [3] = system: myelodysplastic syndrome (MDS), acute myeloid leukemia (AML), Burkitt lymphoma, and cutaneous T-cell lymphoma (CTCL); conditions: IV, days 1 and 4 of weeks 1, 2, 3 of a 4 week cycle, 840 mg/m^2 to 2940 mg/m^2 daily; cited from earlier work
# [4] = system: metastatic pancreatic adenocarcinoma; conditions: combined with modified FOLFIRINOX, cited from earlier work
# [5] = system: BxPC3 pancreatic cancer cells; assay: Oral efficacy in human BxPC3 pancreatic cancer xenografts in mice; assay type: in vivo; parameters: dose or concentration left out as unconfirmed; conditions: BxPC3 xenograft, CD-1 nude mice; oral dose for 4 weeks; FIG. 2
# Procedure: CD1-Nu/Nu female mice, ˜4-6 weeks old were obtained from Charles River Laboratories. Mice were housed 5 to a cage in a micro-isolator room in the Department of Animal Laboratory Research of New York State University (SUNY) at Stony Brook. Light-dark cycles were 12 h each daily, with light from 7 a.m. to 7 p.m. Food (Purina Rodent Chow) and water (distilled sterile-filtered water, pH 7) were provided ad libitum. Protocols and procedures were according to the rules of and approved by the SUNY Institutional Animal Care and Use Committee (IACUC).
# An acclimation period of 7 days was allowed between the arrival of the animal at the study site before tumor inoculation and experimentation. Mice were inoculated subcutaneously (SC) in the right flank with 2×10^6 human H460 NSCLC or BxPC3 pancreatic cancer cells that were suspended in 0.1 mL of Dulbeco's Phosphate Buffered Salt (PBS) solution using a 1 cc syringe with a 27⅝ gauge needle. Tumor dimensions (length and width) were measured daily before, during and after treatment (using Vernier calipers) and the tumor volume was calculated using the prolate ellipsoid formula: (length×width^2)/2. Treatment with test or control articles began 8 days post tumor cell implantation when the tumor was approximately 300 mm^3.
# A similar study was conducted in CD-1 nude mice (n=9) inoculated with 2×10^6 BxPC-3 cells. […]
# Baf3-p210 cells = assay: Survival of Balb/c mice with Baf3-p210 syngeneic ALL tumors; assay type: in vivo; conditions: CPI-613 250 mg/kg gavage once daily combined with doxorubicin 3 mg/kg IP for three days; compared to doxorubicin alone; FIG. 4
# Procedure: Balb/c mice were injected into their tail veins with 1 million Baf3-p210 cells on Day 0 and beginning on Day 3, upon confirmation of engraftment by bioluminescence imaging, were treated with saline (control), doxorubicin (3 mg/kg IP in 200 μL PBS), or doxorubicin (3 mg/kg IP in 200 μL PBS) plus CPI-613 (250 mg/kg gavage of a 25 mg/mL solution of CPI-613 in 0.05 N NaOH in 5% dextrose, adjusted to pH 7.5-8 with 4% glacial acetic acid). and followed for survival. Doxorubicin was administered once daily for three consecutive days, and CPI-613 was administered once daily until death. P value was determined by log rank test.
# Human H460 NSCLC cells = assay: Oral efficacy in human H460 NSCLC xenografts in mice; assay type: in vivo; conditions: H460 xenograft, CD1-Nu/Nu mice; oral gavage 100 mg/kg on day 8, 15, 22, 29; vs 5% dextrose or untreated; FIG. 1
# Procedure: Human H460 NSCLC cells were obtained from American Type Cell Culture (ATCC) (catalog no. HTB-177, Manassas, Va.). These cells tested negative for viral contamination using the Mouse Antibody Production (MAP) test, performed by Charles River Labs Molecular Division, upon the receipt of the tumor cells from ATCC. The tumor cells were maintained at 37° C. in a humidified 5% CO2 atmosphere in T225 tissue culture flasks containing 50 mL of Roswell Park Memorial Institute (RPMI)-1640 solution with 10% Fetal Bovine Serum (FBS) and 2 mM L-glutamine. Cells were split at a ratio of 1:10 every 2-3 days by trypsinization and resuspended in fresh medium in a new flask. Cells were harvested for experiments in the same way at 70-90% confluency.
# CD1-Nu/Nu female mice, ˜4-6 weeks old were obtained from Charles River Laboratories. Mice were housed 5 to a cage in a micro-isolator room in the Department of Animal Laboratory Research of New York State University (SUNY) at Stony Brook. Light-dark cycles were 12 h each daily, with light from 7 a.m. to 7 p.m. […]
# An acclimation period of 7 days was allowed between the arrival of the animal at the study site before tumor inoculation and experimentation. […] Tumor dimensions (length and width) were measured daily before, during and after treatment (using Vernier calipers) and the tumor volume was calculated using the prolate ellipsoid formula: (length×width^2)/2. […]
# [6] = after IV dosing; Pardee et al. 2014; cited from earlier work
# MFL2 cells = assay: Survival of C57Bl/6 mice with MFL2 syngeneic AML tumors; assay type: in vivo
# Procedure: C57Bl/6 mice were injected into their tail veins with 1 million MFL2 cells (Pardee, T. S. et al., Experimental Hematology, 2011, 39, 473-485) on Day 0 and beginning on Day 7, upon confirmation of engraftment by bioluminescence imaging, were treated by gavage with CPI-613 (300 mg/kg daily except weekends of a 50 mg/mL solution in 0.05 N NaOH in 5% dextrose, adjusted to pH 7.5-8 with 4% glacial acetic acid; 1 animal for the chloroquine experiment), intraperitoneally (IP) with chloroquine (200 μL (ca. 100 mg/kg) daily except weekends of a 10 mg/mL solution in PBS; Chlr; 3 animals), orally with metformin (1 mg/mL in the drinking water with ad lib access), or with a combination of CPI-613 (300 mg/kg daily gavage as above) and either chloroquine (200 μL daily IP as above; 4 animals) or metformin (1 mg/mL ad lib in drinking water as above) and followed for survival. Control animals (1 animal in chloroquine experiment) received both oral and IP vehicles. P value was determined by log rank test.
smiles,measurement,setting,value
O=C(O)CCCCC(CCSCc1ccccc1)SCc1ccccc1 (stereo not drawn),oral bioavailability (in words),[1],orally bioavailable
same,efficacy in patients,[2],showed efficacy
same,efficacy in patients,[3],showed efficacy
same,objective response,[4]; IV 500 mg/m^2 on days 1 and 3 of a two week cycle,11 of 18
same,maximum tolerated dose,"[4]; IV, days 1 and 3 of a two week cycle",500 mg/m^2
same,tumor growth (tumor volume),[5],especially pronounced
same,survival,Baf3-p210 cells,significantly prolongs survival
same,tumor growth (tumor volume),Human H460 NSCLC cells,grew much more slowly
same,half-life,[6],1 to 2 h
same,survival,"MFL2 cells; CPI-613 300 mg/kg gavage combined with chloroquine ca. 100 mg/kg IP daily except weekends, FIG. 3A",significantly prolongs survival
same,survival,"MFL2 cells; CPI-613 300 mg/kg gavage combined with metformin 1 mg/mL in drinking water, FIG. 3B",significantly prolongs survival
same,survival,"MFL2 cells; CPI-613 300 mg/kg gavage daily except weekends from Day 7, FIGS. 3A, 3B",significantly prolongs survival
